Several values for one entry are separate records, joined by “and”; a condition that tells them apart may be missing. Identical values can stand only once. ± gives the expanded uncertainty stated by the source.
Legend:
[1] = xn = mol fraction of the nth substance listed; settings: 100 kPa, Liquid, x2 = 0; for viscosity: Capillary tube (Ostwald / Ubbelohde) method; for mass density: Vibrating tube method
[2] = 293.15 K; 100 kPa; Liquid; Capillary tube (Ostwald / Ubbelohde) method
[3] = 293.15 K; 100 kPa; Liquid; Vibrating tube method
[4] = 298.15 K; 100 kPa; Liquid; Capillary tube (Ostwald / Ubbelohde) method
[5] = 298.15 K; 100 kPa; Liquid; Vibrating tube method
[6] = 303.15 K; 100 kPa; Liquid; Capillary tube (Ostwald / Ubbelohde) method
[7] = 303.15 K; 100 kPa; Liquid; Vibrating tube method
[8] = 308.15 K; 100 kPa; Liquid; Capillary tube (Ostwald / Ubbelohde) method
[9] = 308.15 K; 100 kPa; Liquid; Vibrating tube method
[10] = 313.15 K; 100 kPa; Liquid; Capillary tube (Ostwald / Ubbelohde) method
[11] = 313.15 K; 100 kPa; Liquid; Vibrating tube method
[12] = 318.15 K; 100 kPa; Liquid; Capillary tube (Ostwald / Ubbelohde) method
[13] = 318.15 K; 100 kPa; Liquid; Vibrating tube method
[14] = 323.15 K; 100 kPa; Liquid; Capillary tube (Ostwald / Ubbelohde) method
[15] = 323.15 K; 100 kPa; Liquid; Vibrating tube method

Row | Structure (SMILES) | viscosity [2] [mPa·s] | mass density [3] [kg/m3] | viscosity [4] [mPa·s] | mass density [5] [kg/m3] | viscosity [6] | mass density [7] [kg/m3] | viscosity ([1]; 293.15 K) [mPa·s] | mass density ([1]; 293.15 K) [kg/m3] | viscosity ([1]; 298.15 K) [mPa·s] | mass density ([1]; 298.15 K) [kg/m3] | viscosity ([1]; 303.15 K) [mPa·s] | mass density ([1]; 303.15 K) [kg/m3] | viscosity ([1]; 308.15 K) [mPa·s] | mass density ([1]; 308.15 K) [kg/m3] | viscosity ([1]; 313.15 K) [mPa·s] | mass density ([1]; 313.15 K) [kg/m3] | viscosity ([1]; 318.15 K) [mPa·s] | mass density ([1]; 318.15 K) [kg/m3] | viscosity ([1]; 323.15 K) [mPa·s] | mass density ([1]; 323.15 K) [kg/m3] | further results
1 | CCCCn1cc[n+](C)c1C.O=S(=O)([N-]S(=O)(=O)C(F)(F)F)C(F)(F)F | 133.59 ± 3.4 | 1423.72 ± 11 | 101.34 ± 2.4 | 1419.13 ± 11 | 77.86 ± 1.7 mPa·s | 1414.52 ± 11 |  |  |  |  |  |  |  |  |  |  |  |  |  |  | viscosity [8]: 61.73 ± 1.3 mPa·s; mass density [9]: 1409.91 ± 11 kg/m3; viscosity [10]: 49.77 ± 1 mPa·s; mass density [11]: 1405.31 ± 11 kg/m3; viscosity [12]: 40.7 ± 0.85 mPa·s; mass density [13]: 1400.7 ± 11 kg/m3; viscosity [14]: 33.69 ± 0.71 mPa·s; mass density [15]: 1396.13 ± 11 kg/m3
2 | CCC[n+]1ccn(C)c1C.O=S(=O)([N-]S(=O)(=O)C(F)(F)F)C(F)(F)F | 121.7 ± 3 | 1459.14 ± 12 | 92.8 ± 2.1 | 1454.44 ± 12 | 72.1 ± 1.6 mPa·s and 71.1 ± 1.5 mPa·s | 1449.72 ± 12 |  |  |  |  |  |  |  |  |  |  |  |  |  |  | viscosity [8]: 57.76 ± 1.2 mPa·s; mass density [9]: 1445 ± 12 kg/m3; viscosity [10]: 46.53 ± 0.98 mPa·s; mass density [11]: 1440.28 ± 12 kg/m3; viscosity [12]: 38.4 ± 0.81 mPa·s; mass density [13]: 1435.57 ± 11 kg/m3; viscosity [14]: 31.89 ± 0.67 mPa·s; mass density [15]: 1430.87 ± 11 kg/m3
3 | CCn1cc[n+](C)c1C.O=S(=O)([N-]S(=O)(=O)C(F)(F)F)C(F)(F)F |  |  |  |  |  |  |  |  |  |  |  |  |  |  |  |  |  |  |  |  | viscosity (293.15 K; 100 kPa; Metastable liquid; Capillary tube (Ostwald / Ubbelohde) method): 89.27 ± 2 mPa·s; mass density (293.15 K; 100 kPa; Metastable liquid; Vibrating tube method): 1496.32 ± 12 kg/m3; viscosity (298.15 K; 100 kPa; Metastable liquid; Capillary tube (Ostwald / Ubbelohde) method): 70.77 ± 1.5 mPa·s; mass density (298.15 K; 100 kPa; Metastable liquid; Vibrating tube method): 1491.47 ± 12 kg/m3; viscosity (303.15 K; 100 kPa; Capillary tube (Ostwald / Ubbelohde) method; Liquid): 57.02 ± 1.2 mPa·s; mass density (303.15 K; 100 kPa; Vibrating tube method; Liquid): 1486.67 ± 12 kg/m3; viscosity (308.15 K; 100 kPa; Capillary tube (Ostwald / Ubbelohde) method; Liquid): 46.6 ± 0.98 mPa·s; mass density (308.15 K; 100 kPa; Vibrating tube method; Liquid): 1481.87 ± 12 kg/m3; viscosity (313.15 K; 100 kPa; Capillary tube (Ostwald / Ubbelohde) method; Liquid): 38.62 ± 0.81 mPa·s; mass density (313.15 K; 100 kPa; Vibrating tube method; Liquid): 1477.09 ± 12 kg/m3; viscosity (318.15 K; 100 kPa; Capillary tube (Ostwald / Ubbelohde) method; Liquid): 32.33 ± 0.68 mPa·s; mass density (318.15 K; 100 kPa; Vibrating tube method; Liquid): 1472.32 ± 12 kg/m3; viscosity (323.15 K; 100 kPa; Capillary tube (Ostwald / Ubbelohde) method; Liquid): 27.06 ± 0.57 mPa·s; mass density (323.15 K; 100 kPa; Vibrating tube method; Liquid): 1467.56 ± 12 kg/m3
4 | O=C1CCCO1 [γ-butyrolactone] + CCCCn1cc[n+](C)c1C.O=S(=O)([N-]S(=O)(=O)C(F)(F)F)C(F)(F)F |  |  |  |  |  |  | 1.86 ± 0.04 | 1129.49 ± 9 | 1.71 ± 0.04 | 1124.59 ± 9 | 1.58 ± 0.03 | 1119.68 ± 9 | 1.47 ± 0.03 | 1114.78 ± 8.9 | 1.37 ± 0.03 | 1109.87 ± 8.9 | 1.28 ± 0.03 | 1104.96 ± 8.8 | 1.2 ± 0.03 | 1100.05 ± 8.8 | 
5 | O=C1CCCO1 [γ-butyrolactone] + CCC[n+]1ccn(C)c1C.O=S(=O)([N-]S(=O)(=O)C(F)(F)F)C(F)(F)F |  |  |  |  |  |  | 1.86 ± 0.04 | 1129.49 ± 9 | 1.71 ± 0.04 | 1124.59 ± 9 | 1.58 ± 0.03 | 1119.68 ± 9 | 1.47 ± 0.03 | 1114.78 ± 8.9 | 1.37 ± 0.03 | 1109.87 ± 8.9 | 1.28 ± 0.03 | 1104.96 ± 8.8 | 1.2 ± 0.03 | 1100.05 ± 8.8 | 
6 | O=C1CCCO1 [γ-butyrolactone] + CCn1cc[n+](C)c1C.O=S(=O)([N-]S(=O)(=O)C(F)(F)F)C(F)(F)F |  |  |  |  |  |  | 1.86 ± 0.04 | 1129.49 ± 9 | 1.71 ± 0.04 | 1124.59 ± 9 | 1.58 ± 0.03 | 1119.68 ± 9 | 1.47 ± 0.03 | 1114.78 ± 8.9 | 1.37 ± 0.03 | 1109.87 ± 8.9 | 1.28 ± 0.03 | 1104.96 ± 8.8 | 1.2 ± 0.03 | 1100.05 ± 8.8 | 

— the NIST ThermoML archive (doi:10.1016/j.jct.2016.06.012)
